According to patent publication US9901081B2, “Transgenic mouse for determining the role of senescent cells in cancer” (Buck Institute for Research on Aging, priority 2012, dated 2018):

Columns and labels:
[1] = system: K-Ras induced lung tumors; assay: K-Ras mediated lung tumor multiplicity in INK-ATTAC:K-RasLA1 mice; assay type: in vivo, mouse; set-up: dose or concentration left out as unconfirmed; details: INK-ATTAC3:K-RasLA1 and INK-ATTAC5:K-RasLA1 mice; from three weeks of age; twenty one days after treatment; FIG. 4
Description: Briefly, INK-ATTAC (p16^Ink4a apoptosis through targeted activation of caspase) transgenic mice have an FK506-binding protein (FKBP)-caspase 8 (Casp8) fusion polypeptide under the control of the p16^Ink4a promoter (see FIG. 5 providing a vector sequence for the transgene and FIG. 6 providing sequences for components of the transgene including the promoter sequence). In the presence of AP20187, a synthetic drug that induces dimerization of a membrane bound myristoylated FKBP-Casp8 fusion protein, senescent cells specifically expressing the FKBP-Casp8 fusion protein via the p16^Ink4a promoter undergo programmed cell death (apoptosis) (see, e.g., Baker, Nature, supra, FIG. 1 therein). Two founder lines (INK-ATTAC^3 and INK-ATTAC^5) were each bred with the K-rasLA1 tumor model. […]
Two INK-ATTAC:K-RasLA1 were produced (one for INK-ATTAC line 3 and one for line 5). […] Twenty one days after treatment, the mice were sacrificed and tumor multiplicity in lungs was measured. […] In addition, metastasis and overall survival will be monitored after tumor induction in the presence or absence of p16-positive cells.

[2] = system: B16 mouse melanoma cells; assay: B16 melanoma tail-vein engraftment in irradiated p16-3MR mice (primary tumors and metastases); assay type: in vivo
Description: Briefly, 10^6 B16 mouse melanoma cells, a highly aggressive cell line that is syngeneic with p16-3MR transgenic mice (C57B16 background), that express firefly luciferase (fLUC, to enable their detection by bioluminescence) were injected into the tail vein of the p16-3MR transgenic mice three months after being either mock irradiated or irradiated, as described in Example 2. B16 mouse melanoma cells first colonize the lung, where they form primary tumors approximately two weeks after injection, and thereafter metastasize to distal tissues to form secondary tumors in, for example, the pancreas, liver and visceral fat. The biolumninescence markers, fLUC and rLUC are distinguishable because the enzymes use different substrates.
As nodules are difficult to count in fat tissue, metastatic cells were represented as an estimated % of total area of fat.

[3] = system: p16INK4a, IL-6, MMP-3, mRFP expression; assay: RNA expression of SASP biomarkers and mRFP reporter after irradiation and GCV; assay type: in vivo, mouse
[4] = Behavior metrics in p16-3MR mice bearing MMTV-PymT tumors; assay type: in vivo, mouse
Description: (§1) The MMTV-PymT tumor cells (5×10^5 cells) were injected into a mammary fat pad of each mouse. Small primary tumors formed over a period of one week. Then doxorubicin (DOXO) at 10 mg/kg or vehicle only (PBS) was administered once at Day 7. Beginning three days after mice received DOXO, GCV was then administered daily for five days intraperitoneally at 25 mg/kg, or vehicle only was administered. Four different treatment groups of mice (7 mice per group) included (1) no doxorubicin (vehicle), no GCV (vehicle); (2) doxorubicin, no GCV; (3) no doxorubicin, GCV; and (4) doxorubicin, GCV. Bioluminescence in tissues was examined (after administering the firefly luciferase (fLUC) substrate) to monitor tumor formation (see FIG. 14).
(§2) Mice were housed in metabolic cages (Promethion, Sable Systems International, Las Vegas, Nev.) for a period of 4 days to monitor food consumption, water consumption, body mass, spontaneous activity and behavior, voluntary exercise, oxygen consumption, and carbon dioxide production. Three days after GCV treatment, animals were monitored for three nights, and the following nocturnal measurements were obtained: VO2 (mL/min); VCO2 (mL/min); food uptake (g); water uptake (g); Kcal/hr; and wheel run distance (m). The data represent the average of the three nocturnal measurements.
Behavior of animals treated doxorubicin or doxorubicin and GCV was assessed by several criteria accepted in the art as behavior metrics.

[5] = system: p16INK4a and mRFP mRNAs; assay: Senescent cell biomarkers in skin biopsies of doxorubicin-treated p16-3MR mice; assay type: in vivo, mouse; details: doxorubicin 10 mg/kg, then vehicle or GCV 25 mg/kg daily for 7 days; FIG. 10
Description: (§3) Briefly, p16-3MR transgenic mice were treated with vehicle (ctrl) or 10 mg/kg doxorubicin. Seven days after doxorubicin treatment, mice were treated daily with GCV (25 mg/kg) for 7 days or vehicle only. 3 days after the last GCV treatment, 4×10^5 B16 mouse melanoma cells were injected subcutaneously into the p16-3MR transgenic mice, and mice were sacrificed after 12 days for analysis.
Skin biopsies were collected and measured for abundance of senescent cell biomarkers (p16INK4a and mRFP mRNAs).

[6] = system: B16 mouse melanoma cells; assay: Subcutaneous B16 melanoma growth in doxorubicin-treated p16-3MR mice; assay type: in vivo; details: for tumor growth / primary tumors (B16 bioluminescence) / tumor diameters (tumor sizes): then vehicle or GCV, twelve days after B16 injection; for tumor growth / primary tumors (B16 bioluminescence): FIG. 11; for tumor diameters (tumor sizes): FIG. 12
Description: as §3

[7] = system: senescent cells; assay: Detection and clearance of senescent cells by rLUC bioluminescence in irradiated p16-3MR mice; assay type: in vivo, mouse; details: 7 Gy X-ray, after three months GCV 25 mg/kg, lung tissue, FIG. 1A
Description: Briefly, a group of p16-3MR transgenic mice were exposed to whole body ionizing radiation (7 Gy X-ray) and a control group of p16-3MR transgenic mice were mock-irradiated. After three months, the mice were treated with GCV (25 mg/kg) or vehicle only, and then at least two weeks later bioluminescence in tissues was examined after administering the rLUC substrate.

[8] = system: senescent cells; assay: Doxorubicin-induced senescent cells in tissues of p16-3MR mice (mRFP and p16INK4a mRNA); assay type: in vivo, mouse; details: doxorubicin 10 mg/kg
Description: Similar results were observed when the senescent cell accumulation was induced with the chemotherapeutic agent, doxorubicin. […] Various tissues were isolated (liver, heart, lung, kidney, and spleen) and measured for abundance of mRNAs encoding mRFP and p16INK4a as markers for senescent cells (see FIGS. 9A and 9B, respectively).

[9] = Metabolic cage measurements in p16-3MR mice bearing MMTV-PymT tumors; assay type: in vivo, mouse; details: MMTV-PymT tumor mice; DOXO 10 mg/kg Day 7, GCV 25 mg/kg i.p. daily 5 days; average of three nocturnal measurements
Description: as §1, §2

[10] = Behavior metrics in p16-3MR mice not injected with tumor cells; assay type: in vivo, mouse
Description: (§4) Groups of p16-3MR transgenic mice (5 mice per group) were treated once with doxorubicin (10 mg/kg) or vehicle only as described above. Three days later, GCV was administered 5× daily intraperitoneally at 25 mg/kg, or vehicle only was administered. Three different treatment groups of mice included (1) untreated (NT); (2) doxorubicin, no GCV (DOXO+PBS); (3) doxorubicin and GCV (DOXO+GCV). Mice were housed in metabolic cages for 5-8 days and monitored as described above.

[11] = Metabolic cage measurements in p16-3MR mice not injected with tumor cells; assay type: in vivo, mouse; details: doxorubicin 10 mg/kg once, GCV 25 mg/kg i.p. 5x daily
Description: as §4

[12] = GCV, fifteen days after B16 injection, FIG. 2C
[13] = MMTV-PymT tumor mice, 28 days after injection with tumor cells

Structure (SMILES): CC[C@H](C(=O)N1CCCC[C@H]1C(=O)O[C@H](CCc1ccc(OC)c(OC)c1)c1cccc(OCC(=O)NCC(CNC(=O)COc2cccc([C@@H](CCc3ccc(OC)c(OC)c3)OC(=O)[C@@H]3CCCCN3C(=O)[C@@H](CC)c3cc(OC)c(OC)c(OC)c3)c2)CN(C)C)c1)c1cc(OC)c(OC)c(OC)c1 [AP20187]
- tumor numbers (tumor multiplicity in lungs) [1]: significantly reduced

Structure (SMILES): Nc1nc(O)c2ncn(COC(CO)CO)c2n1 [GCV, ganciclovir]
- Detection of metastatic B16 melanoma cells: Fat (estimated % of total area of fat) ([2]; 18 days after injection): 25%
- Detection of metastatic B16 melanoma cells: Liver (luminescent metastatic nodules) ([2]; 18 days after injection): 7 ± 3.6 nodules
- Detection of metastatic B16 melanoma cells: Lung (luminescent nodules) ([2]; 18 days after injection): TNTC
- levels of B16 cells as detected by luminescence ([2]; GCV, day 18, FIG. 8): still showed relatively low levels of B16 cells
- primary lung tumors ([2]; GCV, eighteen days after injection, FIG. 3A): large primary lung tumors were evident
- metastases in distal organs (liver and fat tissue) ([2]; GCV, eighteen days after injection, FIG. 3A, 3C): almost devoid of metastases
- metastases [2, 12]: many fewer metastases
- primary tumors [2, 12]: much smaller primary tumors
- levels of B16 cells as detected by luminescence ([2]; GCV, fifteen days after injection, FIG. 8): relatively low levels of B16 cells
- p16INK4a (p16), IL-6, MMP-3 and mRFP expression levels ([3]; irradiated p16-3MR mice treated with GCV, FIG. 1B): returned p16INK4a (p16), IL-6, MMP-3 and mRFP expression levels to those found in the unirradiated control mice
- effect on expression levels in wild-type mice ([3]; wild-type, non-transgenic C57B16 mice, data not shown): no detectable effect
- active behaviors (WHEEL, LLNGE, SLNGE) ([4]; tumor model animals treated with GCV after doxorubicin, vs doxorubicin only): significantly more active behaviors
- senescence in skin biopsies measured by p16INK4a and mRFP expression [5]: low levels of p16INK4a and mRFP expression
- tumor growth / primary tumors (B16 bioluminescence) ([6]; doxorubicin 10 mg/kg): much smaller primary tumors
- tumor diameters (tumor sizes) ([6]; doxorubicin 10 mg/kg): smaller tumor sizes
- size of B16 melanoma tumors ([6]; mice pre-treated with doxorubicin 10 mg/kg, GCV 25 mg/kg daily for 7 days): substantially reduced the size
- rLUC expression levels (bioluminescence in tissues) [7]: comparable to unirradiated mice

Structure (SMILES): COc1cccc2c1C(=O)c1c(O)c3c(c(O)c1C2=O)C[C@@](O)(C(=O)CO)C[C@@H]3O[C@H]1C[C@H](N)[C@H](O)[C@H](C)O1 [doxorubicin]
- IHOME: Entered habitat (stable mass reading) [4, 13]: 4.86 ± 12.3
- LLNGE: Long lounge (>60 sec, no non-XY sensor interactions) [4, 13]: 72.06 ± 24.05
- SLNGE: Short lounge (5-60 sec, no non-XY sensor interactions) [4, 13]: 5.34 ± 3.64
- THOME: Interaction with habitat (no stable mass reading) [4, 13]: 1.16 ± 2.54
- WHEEL: Interaction with wheel (>=1 revolution) [4, 13]: 7.09 ± 10.84
- senescence in skin biopsies measured by p16INK4a and mRFP expression [5]: increased senescence
- growth of B16 melanoma cells injected subcutaneously ([6]; doxorubicin 10 mg/kg): stimulated the growth
- tumor growth / primary tumors (B16 bioluminescence) ([6]; doxorubicin 10 mg/kg): increased
- tumor diameters (tumor sizes) ([6]; doxorubicin 10 mg/kg): increased tumor sizes
- presence of senescent cells in tissues ([8]; p16-3MR mice): induced the persistent presence of senescent cells
- levels of mRFP and p16INK4a mRNA in tissues ([8]; liver, heart, lung, kidney, spleen, vs untreated control mice, FIGS. 9A, 9B): higher levels of mRFP and p16INK4a in all tissues
- Kcal/hr [9]: 0.39 ± 0.1 kcal/h
- VCO2 [9]: 1.19 ± 0.35 mL/min
- VO2 [9]: 1.35 ± 0.33 mL/min
- Wheel run distance [9]: 3315 ± 1958 m
- IHOME [10]: 1.86 ± 1.66
- LLNGE [10]: 61.46 ± 18.11
- SLNGE [10]: 6.94 ± 2.51
- THOME [10]: 1.15 ± 1.12
- WHEEL [10]: 9.58 ± 13.12
- Kcal/hr [11]: 0.34 ± 0.1 kcal/h
- VCO2 [11]: 1.1 ± 0.36 mL/min
- VO2 [11]: 1.14 ± 0.34 mL/min
- Wheel run distance (total m) [11]: 2708 ± 1867 m
